{"source": "patent US8614201B2", "about": "(Janssen Pharmaceutica NV, priority 2009, dated 2013)", "data": [{"biological_target": "Human TRPA1 (Homo sapiens, UniProt O75762)", "sequence (O75762 whole entry)": "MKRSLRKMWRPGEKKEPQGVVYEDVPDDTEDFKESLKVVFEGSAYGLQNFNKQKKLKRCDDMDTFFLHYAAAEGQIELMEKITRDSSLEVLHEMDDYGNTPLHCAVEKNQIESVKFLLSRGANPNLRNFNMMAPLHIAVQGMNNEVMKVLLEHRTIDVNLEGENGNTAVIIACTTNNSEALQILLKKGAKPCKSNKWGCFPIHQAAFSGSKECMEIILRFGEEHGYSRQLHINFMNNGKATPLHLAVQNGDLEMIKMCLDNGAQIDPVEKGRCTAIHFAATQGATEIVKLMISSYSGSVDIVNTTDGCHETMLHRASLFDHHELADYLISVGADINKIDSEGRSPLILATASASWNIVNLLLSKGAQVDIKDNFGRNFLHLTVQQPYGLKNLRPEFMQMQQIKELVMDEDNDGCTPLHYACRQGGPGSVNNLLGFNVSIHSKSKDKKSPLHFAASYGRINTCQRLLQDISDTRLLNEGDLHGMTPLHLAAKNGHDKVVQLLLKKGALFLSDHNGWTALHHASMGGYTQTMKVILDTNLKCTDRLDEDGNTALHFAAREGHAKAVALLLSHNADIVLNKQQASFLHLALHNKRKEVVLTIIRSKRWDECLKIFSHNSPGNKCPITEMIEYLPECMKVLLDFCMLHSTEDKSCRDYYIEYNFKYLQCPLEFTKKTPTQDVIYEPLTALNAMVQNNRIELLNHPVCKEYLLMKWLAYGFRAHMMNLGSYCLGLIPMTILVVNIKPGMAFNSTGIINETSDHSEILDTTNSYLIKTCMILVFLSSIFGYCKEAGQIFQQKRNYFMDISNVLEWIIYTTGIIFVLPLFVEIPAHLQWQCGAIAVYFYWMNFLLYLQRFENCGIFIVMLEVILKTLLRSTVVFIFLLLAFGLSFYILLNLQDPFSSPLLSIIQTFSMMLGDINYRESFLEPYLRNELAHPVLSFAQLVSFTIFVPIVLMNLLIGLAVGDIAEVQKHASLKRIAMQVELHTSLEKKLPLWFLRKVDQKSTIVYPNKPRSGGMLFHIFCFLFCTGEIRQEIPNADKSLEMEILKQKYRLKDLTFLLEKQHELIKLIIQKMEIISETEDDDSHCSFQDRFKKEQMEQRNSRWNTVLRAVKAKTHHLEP", "assay": "Assay 1: In vitro cellular testing of TRPA1 modulation (CHO-TREx, Fluo-3 calcium fluorescence, AITC agonist)", "type": "cell-based", "design": "expressed in transfected cells; host or cells: CHO-TREx cells (Invitrogen), vector pcDNA4/TO", "conditions": "CHO-TREx cells expressing human TRPA1; Fluo-3 fluorescence (FLIPR/Tetra); agonist 15 μM allyl isothiocyanate (AITC); 30 minute antagonist incubation", "procedure": "Assay 1: In Vitro Cellular Testing of TRPA1 Modulation\nHuman TRPA1 (NCBI accession number NM_007332.1) was cloned into pcDNA4/TO. CHO-TREx cells (Invitrogen, Carlsbad, Calif.) were stably transfected with pcDNA4/TO-TRPA1 using lipofection to generate a clonal cell line that expressed human TRPA1 in a tetracycline-inducible manner. Culture medium used was Ham's F-12 supplemented with 10% fetal bovine serum, 2 mM L-glutamine, 5 μg/ml blasticidin and 200 μg/ml zeocin. Cells were seeded in black-walled clear-bottom 96-well plates at a density of 50,000 cells per well and cultured overnight at 37° C. with 5% CO2 in culture medium supplemented with 1 μg/ml tetracycline. On the day of the experiment, cells were washed 3 times with HEPES buffered saline (in mM: NaCl 137, MgCl2 0.5, KCl 2, dextrose 5, CaCl2 2 and HEPES 10; pH 7.4). Cells were then loaded with calcium-sensitive fluorescent dye by incubation in the presence of 4 μM Fluo-3 AM (TefLabs, Austin, Tex.) at room temperature in the dark for 60 minutes. After incubation with dye, cells were washed in assay buffer and, if appropriate, antagonists were added at this time. Following a further 30 minute incubation, cells were assayed using a Fluorometric Imaging Plate Reader (FLIPR™) or a Tetra (both manufactured by Molecular Devices, CA) to simultaneously monitor Fluo-3 fluorescence in all wells (λexcitation=488 nm, λemission=540 nm). Changes in fluorescence were monitored for 3 minutes after the addition of 15 μM allyl isothiocyanate (AITC) as an agonist. Concentration-dependence of receptor blocking was determined by exposing each well of cells in duplicate rows of a 96-well plate to a serial dilution of test compound. The concentration series usually started at 10 μM with a three-fold serial decrement in concentration. The magnitude of the response to agonist challenge was determined by measuring the fluorescence before and 3 minutes after the addition of the agonist. The degree of blocking was determined by comparing the response to that of negative (no added antagonist) and positive (10 μM ruthenium red) control wells. Data were analyzed using a non-linear regression program (Origin; OriginLab, MA) to fit the concentration-response data to a Hill function. Antagonist potencies were determined as the concentration required to produce 50% reduction in the response as compared to the negative and positive controls.", "units": {"IC50": "nM"}, "values": [{"smiles": "O=C(NCc1cc(-c2ccc(C(F)(F)F)cc2)nc(N2CCN(Cc3ccncc3)CC2)n1)[C@@H]1CCCN1S(=O)(=O)c1ccc(F)cc1", "note": "[Example 21, 1-(4-Fluoro-benzenesulfonyl)-pyrrolidine-2S-carboxylic acid [2-(4-pyridin-4-ylmethyl-piperazin-1-yl)-6-(4-trifluoromethyl-phenyl)-pyrimidin-4-ylmethyl]-amide]", "IC50": 24}, {"smiles": "O=C(NCc1cc(-c2ccc(C(F)(F)F)cc2)nc(N2CCN(Cc3ccccn3)CC2)n1)[C@@H]1CCCN1S(=O)(=O)c1ccc(F)cc1", "note": "[Example 22, 1-(4-Fluoro-benzenesulfonyl)-pyrrolidine-2S-carboxylic acid [2-(4-pyridin-2-ylmethyl-piperazin-1-yl)-6-(4-trifluoromethyl-phenyl)-pyrimidin-4-ylmethyl]-amide]", "IC50": 130}, {"smiles": "O=C(NCc1cc(-c2ccc(C(F)(F)F)cc2)nc(N2CCNCC2)n1)[C@@H]1CCCN1S(=O)(=O)c1ccc(F)cc1", "note": "[Example 23, 1-(4-Fluoro-benzenesulfonyl)-pyrrolidine-2S-carboxylic acid [2-piperazin-1-yl-6-(4-trifluoromethyl-phenyl)-pyrimidin-4-ylmethyl]-amide]", "IC50": 4420}, {"smiles": "CC(C)CN1CCN(c2nc(CNC(=O)[C@@H]3CCCN3S(=O)(=O)c3ccc(Cl)s3)cc(-c3ccc(C(F)(F)F)cc3)n2)CC1", "note": "[Example 24, 1-(5-Chloro-thiophene-2-sulfonyl)-pyrrolidine-2S-carboxylic acid [2-(4-isobutyl-piperazin-1-yl)-6-(4-trifluoromethyl-phenyl)-pyrimidin-4-ylmethyl]-amide]", "IC50": 24}, {"smiles": "CC1CCCN1c1nc(CNC(=O)[C@@H]2CCCN2S(=O)(=O)c2ccc(F)cc2)cc(-c2ccc(C(F)(F)F)cc2)n1", "note": "(stereo partly drawn) [Example 25, 1-(4-Fluoro-benzenesulfonyl)-pyrrolidine-2S-carboxylic acid [2-(2-methyl-pyrrolidin-1-yl)-6-(4-trifluoromethyl-phenyl)-pyrimidin-4-ylmethyl]-amide]", "IC50": 63}, {"smiles": "C[C@H]1CCCN1c1nc(CNC(=O)[C@@H]2CCCN2S(=O)(=O)c2ccc(F)cc2)cc(-c2ccc(C(F)(F)F)cc2)n1", "note": "[Example 26, 1-(4-Fluoro-benzenesulfonyl)-pyrrolidine-2S-carboxylic acid [2-(2S-methyl-pyrrolidin-1-yl)-6-(4-trifluoromethyl-phenyl)-pyrimidin-4-ylmethyl]-amide]", "IC50": 13}, {"smiles": "C[C@@H]1CCCN1c1nc(CNC(=O)[C@@H]2CCCN2S(=O)(=O)c2ccc(F)cc2)cc(-c2ccc(C(F)(F)F)cc2)n1", "note": "[Example 27, 1-(4-Fluoro-benzenesulfonyl)-pyrrolidine-2S-carboxylic acid [2-(2R-methyl-pyrrolidin-1-yl)-6-(4-trifluoromethyl-phenyl)-pyrimidin-4-ylmethyl]-amide]", "IC50": 16}, {"smiles": "CNc1nc(CNC(=O)[C@@H]2CCCN2S(=O)(=O)c2ccc(Cl)s2)cc(-c2ccc(C(F)(F)F)cc2)n1", "note": "[Example 28, 1-(5-Chloro-thiophene-2-sulfonyl)-pyrrolidine-2S-carboxylic acid [2-methylamino-6-(4-trifluoromethyl-phenyl)-pyrimidin-4-ylmethyl]-amide]", "IC50": 81}, {"smiles": "CN(C)c1nc(CNC(=O)[C@@H]2CCCN2S(=O)(=O)c2ccc(Cl)s2)cc(-c2ccc(C(F)(F)F)cc2)n1", "note": "[Example 29, 1-(5-Chloro-thiophene-2-sulfonyl)-pyrrolidine-2S-carboxylic acid [2-dimethylamino-6-(4-trifluoromethyl-phenyl)-pyrimidin-4-ylmethyl]-amide]", "IC50": 12}, {"smiles": "C[C@@H]1CCCN1c1nc(CNC(=O)[C@@H]2CCCN2S(=O)(=O)c2ccc(Cl)s2)cc(-c2ccc(C(F)(F)F)cc2)n1", "note": "[Example 30, 1-(5-Chloro-thiophene-2-sulfonyl)-pyrrolidine-2(S)-carboxylic acid [2-(2R-methyl-pyrrolidin-1-yl)-6-(4-trifluoromethyl-phenyl)-pyrimidin-4-ylmethyl]-amide]", "IC50": 13}, {"smiles": "C[C@H]1CCCN1c1nc(CNC(=O)[C@@H]2CCCN2S(=O)(=O)c2ccc(Cl)s2)cc(-c2ccc(C(F)(F)F)cc2)n1", "note": "[Example 31, 1-(5-Chloro-thiophene-2-sulfonyl)-pyrrolidine-2S-carboxylic acid [2-(2S-methyl-pyrrolidin-1-yl)-6-(4-trifluoromethyl-phenyl)-pyrimidin-4-ylmethyl]-amide]", "IC50": 9}, {"smiles": "CN(C)[C@@H]1CCN(c2nc(CNC(=O)[C@@H]3CCCN3S(=O)(=O)c3ccc(Cl)s3)cc(-c3ccc(C(F)(F)F)cc3)n2)C1", "note": "[Example 32, 1-(5-Chloro-thiophene-2-sulfonyl)-pyrrolidine-2S-carboxylic acid [2-(3R-dimethylamino-pyrrolidin-1-yl)-6-(4-trifluoromethyl-phenyl)-pyrimidin-4-ylmethyl]-amide]", "IC50": 1020}, {"smiles": "CN(C)[C@H]1CCN(c2nc(CNC(=O)[C@@H]3CCCN3S(=O)(=O)c3ccc(Cl)s3)cc(-c3ccc(C(F)(F)F)cc3)n2)C1", "note": "[Example 33, 1-(5-Chloro-thiophene-2-sulfonyl)-pyrrolidine-2S-carboxylic acid [2-(3S-dimethylamino-pyrrolidin-1-yl)-6-(4-trifluoromethyl-phenyl)-pyrimidin-4-ylmethyl]-amide]", "IC50": 469}, {"smiles": "CC(C)(C)OC(=O)N[C@H]1CCN(c2nc(CNC(=O)[C@@H]3CCCN3S(=O)(=O)c3ccc(Cl)s3)cc(-c3ccc(C(F)(F)F)cc3)n2)C1", "note": "[Example 34, {1-[4-({[1-(5-Chloro-thiophene-2-sulfonyl)-pyrrolidine-2S-carbonyl]-amino}-methyl)-6-(4-trifluoromethyl-phenyl)-pyrimidin-2-yl]-pyrrolidin-3S-yl}-carbamic acid tert-butyl ester]", "IC50": 32}, {"smiles": "CC(C)(C)OC(=O)N[C@@H]1CCN(c2nc(CNC(=O)[C@@H]3CCCN3S(=O)(=O)c3ccc(Cl)s3)cc(-c3ccc(C(F)(F)F)cc3)n2)C1", "note": "[Example 35, {1-[4-({[1-(5-Chloro-thiophene-2-sulfonyl)-pyrrolidine-2S-carbonyl]-amino}-methyl)-6-(4-trifluoromethyl-phenyl)-pyrimidin-2-yl]-pyrrolidin-3R-yl}-carbamic acid tert-butyl ester]", "IC50": 83}, {"smiles": "C[C@H](Nc1nc(CNC(=O)[C@@H]2CCCN2S(=O)(=O)c2ccc(Cl)s2)cc(-c2ccc(C(F)(F)F)cc2)n1)c1ccccn1", "note": "[Example 36, 1-(5-Chloro-thiophene-2-sulfonyl)-pyrrolidine-2S-carboxylic acid [2-(1-pyridin-2-yl-ethylamino)-6-(4-trifluoromethyl-phenyl)-pyrimidin-4S-ylmethyl]-amide]", "IC50": 39}, {"smiles": "C[C@@H](Nc1nc(CNC(=O)[C@@H]2CCCN2S(=O)(=O)c2ccc(Cl)s2)cc(-c2ccc(C(F)(F)F)cc2)n1)c1ccccn1", "note": "[Example 37, 1-(5-Chloro-thiophene-2-sulfonyl)-pyrrolidine-2S-carboxylic acid [2-(1-pyridin-2-yl-ethylamino)-6-(4-trifluoromethyl-phenyl)-pyrimidin-4R-ylmethyl]-amide]", "IC50": 7}, {"smiles": "CN(C(=O)OC(C)(C)C)C1CCN(c2nc(CNC(=O)[C@@H]3CCCN3S(=O)(=O)c3ccc(Cl)s3)cc(-c3ccc(C(F)(F)F)cc3)n2)C1", "note": "(stereo partly drawn) [Example 38, {1-[4-({[1-(5-Chloro-thiophene-2-sulfonyl)-pyrrolidine-2S-carbonyl]-amino}-methyl)-6-(4-trifluoromethyl-phenyl)-pyrimidin-2-yl]-pyrrolidin-3-yl}-methyl-carbamic acid tert-butyl ester]", "IC50": 6}, {"smiles": "N[C@H]1CCN(c2nc(CNC(=O)[C@@H]3CCCN3S(=O)(=O)c3ccc(Cl)s3)cc(-c3ccc(C(F)(F)F)cc3)n2)C1", "note": "[Example 39, 1-(5-Chloro-thiophene-2-sulfonyl)-pyrrolidine-2S-carboxylic acid [2-(3S-amino-pyrrolidin-1-yl)-6-(4-trifluoromethyl-phenyl)-pyrimidin-4-ylmethyl]-amide]", "IC50": 1260}, {"smiles": "N[C@@H]1CCN(c2nc(CNC(=O)[C@@H]3CCCN3S(=O)(=O)c3ccc(Cl)s3)cc(-c3ccc(C(F)(F)F)cc3)n2)C1", "note": "[Example 40, 1-(5-Chloro-thiophene-2-sulfonyl)-pyrrolidine-2S-carboxylic acid [2-(3R-amino-pyrrolidin-1-yl)-6-(4-trifluoromethyl-phenyl)-pyrimidin-4-ylmethyl]-amide]", "IC50": 1650}]}]}
